From ChEMBL document CHEMBL3045993, “Expedient synthesis of some novel pregnane derivatives and their evaluation as anti-oxidant and anti-dyslipidemic agents” (2011)

Key:
Format in all cases: functional
Liver microsome = assay: Antioxidant activity in Rattus norvegicus (rat) liver microsomes assessed as inhibition of lipid peroxidation at 100 ug/ml after 90 min by thiobarbuteric acid method
Rattus norvegicus [1] = assay: Antidyslipidemic activity in high fat diet fed Rattus norvegicus Charles Foster (rat) assessed as inhibition of cholesterol-induced phospholipid level in plasma at 100 mg/kg, po administered QD for 30 days relative to control; settings: 720 h
Rattus norvegicus [2] = assay: Antidyslipidemic activity in high fat diet fed Rattus norvegicus Charles Foster (rat) assessed as activation of cholesterol acyltransferase in plasma at 100 mg/kg, po administered QD for 30 days relative to control
Rattus norvegicus [3] = assay: Antidyslipidemic activity in Rattus norvegicus Charles Foster (rat) assessed as activation of post heparin lipolytic activity at 400 mg/kg, po after 18 hr relative to control
Rattus norvegicus [4] = assay: Antidyslipidemic activity in high fat diet fed Rattus norvegicus Charles Foster (rat) assessed as activation of liver phopholipase at 100 mg/kg, po administered QD for 30 days relative to control
[5] = Antioxidant activity assessed as inhibition of xanthine oxidase-mediated superoxide anion release at 100 ug/ml after 30 min relative to control
Rattus norvegicus [6] = assay: Antidyslipidemic activity in Rattus norvegicus Charles Foster (rat) assessed as activation of post heparin lipolytic activity at 100 mg/kg, po after 18 hr relative to control
Rattus norvegicus [7] = assay: Antidyslipidemic activity in Rattus norvegicus Charles Foster (rat) assessed as inhibition of triton WR1339-induced triglyceride in plasma at 100 mg/kg, po after 18 hr relative to control
Rattus norvegicus [8] = assay: Antidyslipidemic activity in Rattus norvegicus Charles Foster (rat) assessed as inhibition of triton WR1339-induced total cholesterol in plasma at 100 mg/kg, po after 18 hr relative to control; settings: read-out: INH
Rattus norvegicus [9] = assay: Antidyslipidemic activity in Rattus norvegicus Charles Foster (rat) assessed as inhibition of triton WR1339-induced phospholipid in plasma at 100 mg/kg, po after 18 hr relative to control
[10] = Antioxidant activity assessed as inhibition of hydroxy radical generation at 100 ug/ml after 90 min by thiobarbuteric acid method

Row | SMILES | inhibition in vivo at 100 mg/kg (Rattus norvegicus [1]) [%] | Activity (Rattus norvegicus [2]) [%] | Activity (Rattus norvegicus [3]) [%] | Activity (Rattus norvegicus [4]) [%] | other results
1 | CC(=O)[C@H]1[C@H](Nc2ccc(Cl)cc2)C[C@H]2[C@@H]3CC=C4C[C@@H](O)CC[C@]4(C)[C@H]3CC[C@@]21C [3BETA-HYDROXY-16ALPHA-(4-CHLORO PHENYLAMINO)-PREGN-5-EN-20-ONE] | -25 | 23 | 31 | 18 | inhibition (Liver microsome): -8%
2 | C/C(=N\OC(C)C)C1=CC[C@H]2[C@@H]3CC=C4C[C@@H](O)CC[C@]4(C)[C@H]3CC[C@]12C |  |  | 23 |  | inhibition [5]: -9%
3 | COCCO[C@@H]1C[C@H]2[C@@H]3CC=C4C[C@@H](O)CC[C@]4(C)[C@H]3CC[C@]2(C)[C@H]1C(C)=O [3BETA-HYDROXY-16ALPHAA-(2-METHOXYETHOXY)PREGN-5-EN-20-ONE] |  |  | 18 |  | 
4 | CC(=O)[C@H]1[C@H](OCCOCCO)C[C@H]2[C@@H]3CC=C4C[C@@H](O)CC[C@]4(C)[C@H]3CC[C@@]21C [3BETA-HYDROXY-16ALPHA-[2(2-HYDROXY ETHOXY)-ETHOXY]PREGN-5-EN-20-ONE] |  |  | 17 |  | 
5 | COCCO[C@@H]1C[C@H]2[C@@H]3CC=C4C[C@@H](OC(C)=O)CC[C@]4(C)[C@H]3CC[C@]2(C)[C@H]1C(C)=O [3BETA-ACETOXY-16ALPHA-(2-METHOXY ETHOXY)-PREGN-5-EN-20-ONE] |  |  | 18 |  | 
6 | C[C@H](O)[C@H]1[C@H](OCCOCCO)C[C@H]2[C@@H]3CC=C4C[C@@H](O)CC[C@]4(C)[C@H]3CC[C@]12C [3BETA,20BETA-DIHYDROXY-16ALPHA-[2(2-HYDROXYETHOXY)-ETHOXY]-PREGN-5-EN] |  |  | 17 |  | 
7 | CC(=O)[C@H]1[C@H](c2cc(F)ccc2N)C[C@H]2[C@@H]3CC=C4C[C@@H](O)CC[C@]4(C)[C@H]3CC[C@@]21C [3BETA-HYDROXY-16ALPHA-(2-AMINO-5-FLUORO-PHENYL)-PREGN-5-EN-20-ONE] | -21 | 28 | 24 | 27 | 
8 | CC(=O)[C@@]1(O)[C@H](OCCO)C[C@H]2[C@@H]3CC=C4C[C@@H](O)CC[C@]4(C)[C@H]3CC[C@@]21C [3BETA,17ALPHA-DIHYDROXY-16ALPHA-(2-HYDROXY ETHOXY)PREGN-5-EN-20-ONE] |  |  | 21 |  | 
9 | Cc1ccc(C)c(OCCCC(C)(C)C(=O)O)c1 [GEMFIBROZIL] | -31 | 31 |  | 33 | Activity (Rattus norvegicus [6]): 32%; inhibition in vivo at 100 mg/kg (Rattus norvegicus [7]): 36%; inhibition in vivo at 100 mg/kg (Rattus norvegicus [8]): 36%; inhibition in vivo at 100 mg/kg (Rattus norvegicus [9]): -34%
10 | CC(=O)[C@H]1[C@H](OCC(C)O)C[C@H]2[C@@H]3CC=C4C[C@@H](O)CC[C@]4(C)[C@H]3CC[C@@]21C (stereo partly drawn) [3BETA-HYDROXY-16ALPHA-(2-HYDROXY PROPOXY)PREGN-5-EN-20-ONE] |  |  | 21 |  | 
11 | CC(=O)OCCOCCO[C@@H]1C[C@H]2[C@@H]3CC=C4C[C@@H](OC(C)=O)CC[C@]4(C)[C@H]3CC[C@]2(C)[C@H]1C(C)=O [3BETA-ACETOXY-16ALPHA-[2(2-ACETOXY ETHOXY)-ETHOXY]-PREGN-5-EN-20-ONE] | -22 | 20 | 23 | 15 | 
12 | CC(=O)OC(C)CO[C@@H]1C[C@H]2[C@@H]3CC=C4C[C@@H](OC(C)=O)CC[C@]4(C)[C@H]3CC[C@]2(C)[C@H]1C(C)=O (stereo partly drawn) [3BETA-ACETOXY-16ALPHA-(2-ACETOXY PROPOXY)-PREGN-5-EN-20-ONE] |  |  | 13 |  | inhibition [10]: -9%
13 | COCCO[C@@H]1C[C@H]2[C@@H]3CC=C4C[C@@H](O)CC[C@]4(C)[C@H]3CC[C@]2(C)[C@H]1[C@H](C)O [3BETA,20BETA-DIHYDROXY-16ALPHA-(2-METHOXY ETHOXY)-PREGN-5-EN] |  |  | 17 |  | inhibition (Liver microsome): -10%
